Measurements from patent US20170049842A1, “FOOD ADDITIVE FOR PRODUCING FOOD FOR PREVENTING CRANIAL NERVE DISEASE AND/OR IMPROVING BRAIN FUNCTION” (FUJI OIL HOLDINGS INC., priority 2014, published 2017).
Like-named read-outs stand apart in the source and are kept apart here. Peptide text beside a SMILES is read from it.

Tests used:
[1] = Permeability coefficient (Papp) across Caco-2 cell monolayers in Ussing Chamber; details: Caco-2; for Papp A→B at 60 min, 10 mM: human
Procedure: (§1) The measurement of permeability coefficient, which was an index of absorbability in the intestinal tract, of ARPs was performed as follows.
(§2) Caco-2 cells were seeded in Cell culture insert at 4.0×10^5 cells/mL, and cultured for 3 days in an intestinal epithelial differentiation promoting medium. Caco-2 cell monolayers were cut and set to Ussing Chamber. Hanks' Balanced Salt Solution (HBSS) (apical membrane side: pH 6.0, basolateral membrane side: pH 7.4) was added in each Chamber. After 15 minutes preliminary heat retention (37° C., 95% O2/5% CO2 mixture gas), each ARPs aqueous solution (10 mM) was added to apical membrane side. Samples were recovered from the basolateral membrane side every 15 minutes (total 60 minutes). The recovered sample was subjected to ESI-TOF-MS (Electro Spray Ionization-Time of Flight-Mass Spectrometry) analysis to determine permeated peptide amount. Permeability coefficient (Papp) was calculated according to the following formula.
(§3) C0: concentration of added peptide (mmol/L)
(§4) dC/dt: Permeated amount of peptide per time (mmol/L·sec)
(§5) Concentration of peptide, which transitioned to the basolateral membrane side in each time, was calculated based on the area from reference standard. In addition, it was confirmed that they were not degraded to amino acids.
(§6) Permeated peptide amount per time was calculated and permeability coefficient (Papp) was calculated according to the above formula.

Caco-2 cell monolayers [2] = experiment: as above; details: compared with the other ARPs
Procedure: as §1, §2, §3, §4, §5, §6

Caco-2 cell monolayers [3] = test system: Caco-2 cell monolayers
Procedure: as §1, §2, §3, §4, §5, §6

in vitro = details: human, Caco-2
Procedure: as §1, §2, §3, §4, §5, §6

Structure (SMILES): N[C@@H](Cc1ccccc1)C(=O)N[C@@H](Cc1ccc(O)cc1)C(=O)O [G, Phe-Tyr] (H-Phe-Tyr-OH; N-terminus and C-terminus assumed)
- Papp A→B at 60 min, 10 mM [1]: 0.006 ± 0.0001 ×10⁻⁶ cm/s

Structure (SMILES): N[C@@H](Cc1ccc(O)cc1)C(=O)N1CCC[C@H]1C(=O)O [E, Tyr-Pro] (H-Tyr-Pro-OH; N-terminus and C-terminus assumed)
- permeability coefficient / permeation efficiency in mesenteric model cell, in words (Caco-2 cell monolayers [2]): relatively high permeation efficiency
- Papp A→B [1]: 0.885 ± 0.215 ×10⁻⁶ cm/s

Structure (SMILES): N[C@@H](Cc1ccc(O)cc1)C(=O)N[C@@H](CO)C(=O)O [D, Tyr-Ser] (H-Tyr-Ser-OH; N-terminus and C-terminus assumed)
- permeability coefficient / permeation efficiency in mesenteric model cell, in words (Caco-2 cell monolayers [2]): relatively higher permeability coefficient than the other ARPs
- Papp A→B [1]: 0.248 ± 0.088 ×10⁻⁶ cm/s

Structure (SMILES): N[C@@H](CO)C(=O)N[C@@H](Cc1ccc(O)cc1)C(=O)O [A, Ser-Tyr] (H-Ser-Tyr-OH; N-terminus and C-terminus assumed)
- permeability coefficient / permeation efficiency in mesenteric model cell, in words (Caco-2 cell monolayers [2]): relatively high permeation efficiency
- Papp A→B [1]: 0.72 ± 0.272 ×10⁻⁶ cm/s

Structure (SMILES): CC[C@H](C)[C@H](N)C(=O)N[C@@H](Cc1ccc(O)cc1)C(=O)O [H, Ile-Tyr] (H-Ile-Tyr-OH; N-terminus and C-terminus assumed)
- permeability coefficient / permeation efficiency in mesenteric model cell, in words (Caco-2 cell monolayers [2]): relatively high permeation efficiency
- Papp A→B [1]: 2.92 ± 0.265 ×10⁻⁶ cm/s

Structure (SMILES): CC(C)C[C@H](NC(=O)[C@@H](N)Cc1ccc(O)cc1)C(=O)O [B, Tyr-Leu] (H-Tyr-Leu-OH; N-terminus and C-terminus assumed)
- permeability coefficient / permeation efficiency in mesenteric model cell, in words (Caco-2 cell monolayers [3]): relatively higher permeability coefficient than the other ARPs
- Papp A→B at 60 min, 10 mM (in vitro): 0.596 ± 0.198 ×10⁻⁶ cm/s

Structure (SMILES): NC(=O)C[C@H](NC(=O)[C@@H](N)Cc1ccc(O)cc1)C(=O)O [F, Tyr-Asn] (H-Tyr-Asn-OH; N-terminus and C-terminus assumed)
- Papp A→B [1]: 0.044 ± 0.009 ×10⁻⁶ cm/s

Structure (SMILES): N=C(N)NCCC[C@H](NC(=O)[C@@H](N)Cc1ccc(O)cc1)C(=O)O [Peptide C, Tyr-Arg]
- Papp A→B at 60 min, 10 mM [1]: 0.05 ± 0.011 ×10⁻⁶ cm/s
